Consider 1 compound from patent US11033574B2, “Method for treating schizophrenia” (MiZ Company Limited, priority 2018, dated 2021).

In the test the test system is schizophrenia. As to the method:
At the initiation of hydrogen gas inhalation, a drug therapy with Abilify (intramuscular injection, 400 mg/month, once) and Lexotan tablets (oral administration, 6 mg/day, 3 times per day) was carried out.
Conditions of hydrogen gas inhalation were as follows:
For 40 days after initiation of inhalation: once per day, 70 mL/minute;
The subsequent 1 month: 2 hours per day, 70 mL/minute, hydrogen gas concentration: 3.0 to 4.0%;
The subsequent 4 months: 2 hours per day, 140 mL/minute, hydrogen gas concentration: 6.0 to 7.0%;
The subsequent 4 months: 6 hours per day, 280 mL/minute, hydrogen gas concentration: 6.0 to 7.0% (two hydrogen inhalers were used).
Thereafter, the patient was allowed to inhale hydrogen gas (6.0 to 7.0%, 280 mL/minute) for 6 hours/day, continuously for 9 months.

The mark [1] stands for this setting: about 10 months after initiation of hydrogen inhalation.

`[HH]` [hydrogen gas]: under “Abilify intramuscular injection, 400 mg/month”, the “time for which injection of a medicine (once a month) was continued after initiation of hydrogen inhalation, thereafter stopped” value is 8 months. Moreover, for the setting “Lexotan tablets, oral, 6 mg/day, hydrogen once per day, 70 mL/minute”, the “time after initiation of hydrogen inhalation at which administration of the oral medicine was terminated” value is recorded as “Ten”. In addition, under setting [1], the “disease-state in the period during which hydrogen inhalation was continued” value is “stably maintained” and the “phase of the disease” value is on record as “recovery phase”. Besides, where the note is “brotizolam tablet, 0.25 mg/day”, the “time after initiation of inhalation when use of the sleeping pill was stopped” value was “About 6 months”. For the setting “brotizolam tablet, 0.25 mg/day, every day at initiation”, the “time after initiation of inhalation when the patient started to fall asleep without taking the sleeping pill” value was “about 2 months”. Besides, the “value of the patient in the examination” value (examination in January of 2019) was “the same as in a healthy person”. Further, the “disease state according to medical examination during an office visit” value (further 9 months of hydrogen gas 6.0 to 7.0%, 280 mL/minute, 6 hours/day) is recorded as “stable”. Moreover, the “recurrence after inhalation of hydrogen gas was stopped” value (inhalation stopped in March of 2019) is “no recurrence occurred”. The “consecutive symptom, hallucination” value (patient, schizophrenia onset 13 years ago, on Abilify and Lexotan, after initiation of hydrogen inhalation, 3.0 to 6.0%) is given as “disappeared”.
